The assay has as its target T1, full-length human PKCι (Homo sapiens, UniProt P41743).
T1 construct: Recombinant, full-length human PKCι expressed in Sf21 insect cells is also commercially available; purchased; host or cells: Sf21 insect cells
T1 sequence (P41743 1-596): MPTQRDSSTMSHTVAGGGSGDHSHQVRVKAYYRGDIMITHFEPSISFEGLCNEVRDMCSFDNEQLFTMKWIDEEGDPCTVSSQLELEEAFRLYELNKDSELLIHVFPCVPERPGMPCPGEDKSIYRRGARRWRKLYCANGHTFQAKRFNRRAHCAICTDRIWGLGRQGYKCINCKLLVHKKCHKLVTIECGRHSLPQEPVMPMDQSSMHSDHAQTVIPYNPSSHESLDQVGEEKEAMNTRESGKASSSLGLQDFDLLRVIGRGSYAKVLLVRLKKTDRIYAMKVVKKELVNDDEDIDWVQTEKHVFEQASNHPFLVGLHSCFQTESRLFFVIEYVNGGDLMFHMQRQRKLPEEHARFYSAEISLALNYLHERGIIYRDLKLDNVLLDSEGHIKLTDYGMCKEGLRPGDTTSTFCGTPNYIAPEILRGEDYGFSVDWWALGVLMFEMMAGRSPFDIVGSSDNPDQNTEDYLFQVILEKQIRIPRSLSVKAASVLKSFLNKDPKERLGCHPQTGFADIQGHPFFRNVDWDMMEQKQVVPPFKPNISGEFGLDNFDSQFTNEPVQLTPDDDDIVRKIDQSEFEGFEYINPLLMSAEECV
Briefly: PKCι IC50 IMAP assay, full-length PKCι at 150 μM ATP. Type of assay: biochemical. The settings on record: read-out: IC50 in IMAP assay against full length PKCi at 150 μM ATP. Put shortly:
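Compounds in 4% final DMSO are mixed with Sf21-derived full-length human PKCι (typically 15 pM) and 100 nM FAM-labelled pseudosubstrate peptide, then started with 150 μM ATP. Reaction runs 60 min at room temperature, is quenched with IMAP development reagent for 2 h, and fluorescence polarisation is measured to derive IC50.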
A word on the IC50: it is the concentration that inhibits the measured activity by half. Take `Fc1cc(F)nc(Nc2cc(-c3nc(N4CCNCC4)c4c(C5CC5)cncc4n3)ccn2)c1` [Example 836, [4-(5-Cyclopropyl-4-piperazin-1-yl-pyrido[3,4-d]pyrimidin-2-yl)-pyridin-2-yl]-(4,6-difluoro-pyridin-2-yl)-amine]: the IC50 was less than 100 nM.
For the compound `Fc1cccc(F)c1Nc1cc(-c2nc(NC3CCNC3)c3c(C4CC4)cncc3n2)ccn1` (stereo not shown) [Example 837, {5-Cyclopropyl-2-[2-(2,6-difluoro-phenylamino)-pyridin-4-yl]-pyrido[3,4-d]pyrimidin-4-yl}-pyrrolidin-3-yl-amine], the IC50 was less than 100 nM.
`CC1(C)CN(c2nc(-c3ccnc(Nc4nc(F)ccc4F)c3)nc3cncc(C4CC4)c23)CCN1` [Example 838, {4-[5-Cyclopropyl-4-(3,3-dimethyl-piperazin-1-yl)-pyrido[3,4-d]pyrimidin-2-yl]-pyridin-2-yl}-(3,6-difluoro-pyridin-2-yl)-amine]: the IC50 was less than 100 nM.
On to `C[C@H]1CN(c2nc(-c3ccnc(Nc4ccc(C(F)(F)F)cn4)c3)nc3cncc(C4CC4)c23)CCN1` [Example 839, {4-[5-Cyclopropyl-4-((S)-3-methyl-piperazin-1-yl)-pyrido[3,4-d]pyrimidin-2-yl]-pyridin-2-yl}-(5-trifluoromethyl-pyridin-2-yl)-amine], for which the IC50 is less than 100 nM.
Turning to `CC1(C)CN(c2nc(-c3ccnc(Nc4ncccc4F)c3)nc3cncc(C4CC4)c23)CCN1` [Example 840, {4-[5-Cyclopropyl-4-(3,3-dimethyl-piperazin-1-yl)-pyrido[3,4-d]pyrimidin-2-yl]-pyridin-2-yl}-(3-fluoro-pyridin-2-yl)-amine], the IC50 is less than 100 nM.
`CNC(=O)c1ccc(Nc2cc(-c3nc(N4CCNCC4)c4c(C5CC5)cncc4n3)ccn2)cc1` [Example 841, -[4-(5-Cyclopropyl-4-piperazin-1-yl-pyrido[3,4-d]pyrimidin-2-yl)-pyridin-2-ylamino]-N-methyl-benzamide]: the IC50 was less than 100 nM.
Consider `Fc1cccc(F)c1Nc1cc(-c2nc(NC3CCCNC3)c3c(C4CC4)cncc3n2)ccn1` (stereo not shown) [Example 842, {5-Cyclopropyl-2-[2-(2,6-difluoro-phenylamino)-pyridin-4-yl]-pyrido[3,4-d]pyrimidin-4-yl}-piperidin-3-yl-amine], for which the IC50 is less than 100 nM.
For `C[C@@H]1CN(c2nc(-c3ccnc(Nc4c(F)cccc4F)c3)nc3cncc(C4CC4)c23)C[C@H](C)N1` [Example 843, {4-[5-Cyclopropyl-4-((3R,5S)-3,5-dimethyl-piperazin-1-yl)-pyrido[3,4-d]pyrimidin-2-yl]-pyridin-2-yl}-(2,6-difluoro-phenyl)-amine], the IC50 was less than 100 nM.
As for `NC(=O)c1ccc(Nc2cc(-c3nc(N4CCNCC4)c4c(C5CC5)cncc4n3)ccn2)nc1` [Example 844, 6-[4-(5-Cyclopropyl-4-piperazin-1-yl-pyrido[3,4-d]pyrimidin-2-yl)-pyridin-2-ylamino]-nicotinamide], the 50% inhibitory concentration (IC50) was less than 100 nM.
For the compound `CC1(C)CN(c2nc(-c3ccnc(Nc4nc(F)cc(F)c4F)c3)nc3cncc(C4CC4)c23)CCN1` [Example 845, {4-[5-Cyclopropyl-4-(3,3-dimethyl-piperazin-1-yl)-pyrido[3,4-d]pyrimidin-2-yl]-pyridin-2-yl}-(3,4,6-trifluoro-pyridin-2-yl)-amine], the IC50 is less than 100 nM.
In the case of `c1cc(C2CC2)c2nc(Nc3cc(-c4nc(N5CCNCC5)c5c(C6CC6)cncc5n4)ccn3)nn2c1` [Example 846, [4-(5-Cyclopropyl-4-piperazin-1-yl-pyrido[3,4-d]pyrimidin-2-yl)-pyridin-2-yl]-(8-cyclopropyl-[1,2,4]triazolo[1,5-a]pyridin-2-yl)-amine], the IC50 was less than 100 nM.
Turning to `c1ccc(C[C@H]2CN(c3nc(N4CCOCC4)nc4cnccc34)CCN2)cc1` [Example 1000, 4-((S)-3-Benzyl-piperazin-1-yl)-2-morpholin-4-yl-pyrido[3,4-d]pyrimidine], the IC50 fell in the range of 1000 to 10000 nM.
As to `c1ccc(CC2CN(c3nc(N[C@@H]4CCNC4)c4ccncc4n3)CCO2)cc1` (stereo partly drawn) [Example 1001, [2-(2-Benzyl-morpholin-4-yl)-pyrido[3,4-d]pyrimidin-4-yl]-(R)-pyrrolidin-3-yl-amine], the IC50 is 1000 to 10000 nM.
With `COc1cncc2nc(N3CCOCC3)nc(NC[C@@H](N)Cc3ccccc3)c12` [Example 1002, (S)-N^1-(5-Methoxy-2-morpholin-4-yl-pyrido[3,4-d]pyrimidin-4-yl)-3-phenyl-propane-1,2-diamine], the IC50 is less than 100 nM.
In the case of `COc1cncc2nc(N3CCOCC3)nc(N3CCNCC3)c12` [Example 1003, 5-Methoxy-2-morpholin-4-yl-4-piperazin-1-yl-pyrido[3,4-d]pyrimidine], the IC50 was in the range of 100 to 1000 nM.
On to `COc1cncc2nc(N3CCOC(COc4ccccc4)C3)nc(N3CCNCC3)c12` (stereo not shown) [Example 1004, 5-Methoxy-2-(2-phenoxymethyl-morpholin-4-yl)-4-piperazin-1-yl-pyrido[3,4-d]pyrimidine], for which the IC50 was 1000 to 10000 nM.
As to `COc1cncc2nc(N3CCOCC3)nc(N3CCN[C@@H](CO)C3)c12` [Example 1005, [(R)-4-(5-Methoxy-2-morpholin-4-yl-pyrido[3,4-d]pyrimidin-4-yl)-piperazin-2-yl]-methanol], the IC50 fell in the range of 100 to 1000 nM.
The value for `COc1cncc2nc(N3CCOCC3)nc(N3CCN[C@@H](COc4ccccc4)C3)c12` [Example 1006, 5-Methoxy-2-morpholin-4-yl-4-((R)-3-phenoxymethyl-piperazin-1-yl)-pyrido[3,4-d]pyrimidine] was 100 to 1000 nM; that for `COc1cncc2nc(N3CCOCC3)nc(N3CCC[C@H](Nc4ccccc4)C3)c12` [Example 1007, [(S)-1-(5-Methoxy-2-morpholin-4-yl-pyrido[3,4-d]pyrimidin-4-yl)-piperidin-3-yl]-phenyl-amine] was 1000 to 10000 nM.
Regarding `COc1cncc2nc(N3CCOCC3)nc(N3CCN[C@@H](COc4ccccc4F)C3)c12` [Example 1008, 4-[(R)-3-(2-Fluoro-phenoxymethyl)-piperazin-1-yl]-5-methoxy-2-morpholin-4-yl-pyrido[3,4-d]pyrimidine], the IC50 was 100 to 1000 nM.
Turning to `COC[C@H]1CN(c2nc(N3CCOCC3)nc3cncc(OC)c23)CCN1` [Example 1009, 5-Methoxy-4-((R)-3-methoxymethyl-piperazin-1-yl)-2-morpholin-4-yl-pyrido[3,4-d]pyrimidine], the IC50 was in the range of 1000 to 10000 nM.
Turning to `COc1cncc2nc(N3CCOCC3)nc(N3CCN[C@@H](COc4ccc(F)cc4)C3)c12` [Example 1010, 4-[(R)-3-(4-Fluoro-phenoxymethyl)-piperazin-1-yl]-5-methoxy-2-morpholin-4-yl-pyrido[3,4-d]pyrimidine], the IC50 was 100 to 1000 nM.
For the compound `c1cc2c(N[C@@H]3CCNC3)nc(N3CCOCC3)nc2cn1` [Example 1011, (2-Morpholin-4-yl-pyrido[3,4-d]pyrimidin-4-yl)-(R)-pyrrolidin-3-yl-amine], the IC50 lay within 1000 to 10000 nM.
The value for `c1cc(-c2nccc3c(N[C@@H]4CCNC4)nc(N4CCOCC4)nc23)[nH]n1` [Example 1012, [2-Morpholin-4-yl-8-(2H-pyrazol-3-yl)-pyrido[3,4-d]pyrimidin-4-yl]-(R)-pyrrolidin-3-yl-amine] was 1000 to 10000 nM.
Consider `Nc1nccc2c(NC[C@@H](N)Cc3ccccc3)nc(N3CCOCC3)nc12` [Example 1013, N^4-((S)-2-Amino-3-phenyl-propyl)-2-morpholin-4-yl-pyrido[3,4-d]pyrimidine-4,8-diamine], for which the IC50 lay in the range of 100 to 1000 nM.
